Data reported in BindingDB's records for patent US20250074911 (Crossfire Oncology Holding, 2025).

Molecular target: Tyrosine-protein kinase BTK (Homo sapiens, UniProt Q06187)
Assay: Biochemical kinase assay wt-BTK
Method: To determine the inhibitory activity of compounds on wt-BTK enzyme activity, the IMAP assay (Molecular Devices) was used. Compounds were serially diluted in dimethylsulfoxide (DMSO) and subsequently in 4% DMSO in IMAP reaction buffer, which consists of 10 mM Tris-HCl, pH 15 7.5, 10 mM MgCl2, 0.01% Tween-20, 0.1% NaN3 and 1 mM freshly prepared dithiotreitol (DTT). Compound solution was mixed with an equal volume of full-length wt-BTK enzyme (Carna Biosciences, cat. no. 08-180) in IMAP reaction buffer. After pre-incubation of 1 hour in the dark at room temperature, fluorescein-labeled MBP-derived substrate peptide (Molecular Devices, cat. no. RP 7123) was added, followed by ATP to start the reaction. Final enzyme concentration was 1.2 nM, final substrate concentration 50 nM, and final ATP concentration was 4 μM. The reaction was allowed to proceed for 2 hours at room temperature in the dark. The reaction was stopped by quenching with IMAP progressive binding solution according to the protocol of the manufacturer (Molecular Devices). Fluorescein polarization was measured on an Envision multimode reader (Perkin Elmer, Waltham, MA, U.S.A.).

Sequence of Tyrosine-protein kinase BTK (Q06187 whole entry): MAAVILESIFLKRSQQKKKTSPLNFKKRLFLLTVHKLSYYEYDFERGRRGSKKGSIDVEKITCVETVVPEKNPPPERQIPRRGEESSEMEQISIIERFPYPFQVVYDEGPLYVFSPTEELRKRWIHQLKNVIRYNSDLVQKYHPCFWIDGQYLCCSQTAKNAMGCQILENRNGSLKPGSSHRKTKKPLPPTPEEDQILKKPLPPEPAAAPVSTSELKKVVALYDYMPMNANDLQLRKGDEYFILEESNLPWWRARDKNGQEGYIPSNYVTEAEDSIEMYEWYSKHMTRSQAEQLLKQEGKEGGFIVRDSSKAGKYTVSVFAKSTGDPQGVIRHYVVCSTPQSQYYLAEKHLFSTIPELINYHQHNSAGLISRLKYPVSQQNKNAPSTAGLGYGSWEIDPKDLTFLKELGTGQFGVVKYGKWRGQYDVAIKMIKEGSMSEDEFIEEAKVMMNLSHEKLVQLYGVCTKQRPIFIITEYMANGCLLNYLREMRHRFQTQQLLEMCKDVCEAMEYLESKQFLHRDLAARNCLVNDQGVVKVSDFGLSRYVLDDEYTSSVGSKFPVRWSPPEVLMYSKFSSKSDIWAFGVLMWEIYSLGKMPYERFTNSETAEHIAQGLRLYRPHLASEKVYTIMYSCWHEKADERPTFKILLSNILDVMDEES

IC50: < 5 nM
Compound: C[C@@H]1CCn2nc(-c3ccc(C(=O)Nc4cc(C(F)(F)F)ccn4)cc3)c3c(N)ncc(c32)/C=C/CCCCC(=O)N1 [US20250074911, Example 54]
